These results are taken from US20050137130A1, “Medical treatment” (priority 2001, published 2005).

What all share (assay type): cell-based
The test system of one assay is Mouse CD4+T-cells. Description: ELISA assay for Notch signalling modulator activity in mouse CD4+ cells (IL-10, plate-bound hDelta1-IgG4Fc). Particulars: all concentrations tested, added at start of culture, day 3. Here is the method: Spleens were removed from female Balb/c mice 8-10 weeks old and passed through a […] cell strainer into 20 ml R10F medium (R10F-RPMI 1640 media (Gibco Cat No 22409) plus 2 mM L-glutamine, 50 μg/ml Penicillin, 50 μg/ml Streptomycin, 5×10^−5 M β-mercapto-ethanol in 10% fetal calf serum). The cell suspension was spun (1150 rpm 5 min) and the media removed.
The cells were incubated for 4 minutes with 5 ml ACK lysis buffer (0.15M NH4Cl, […], O. 1 mM Na2EDTA in double distilled water) per spleen (to lyse red blood cells). The cells were then washed once with R10F medium and counted. CD4+ cells were purified from the suspensions by positive selection on a Magnetic Associated Cell Sorter (MACS) column (Miltenyi Biotec, Bisley, UK: Cat No 130-042-401) using CD4 (L3T4) beads (Miltenyi Biotec Cat No 130-049-201), according to the manufacturer's directions. […]
Mouse CD4+T-cells (prepared as above) were cultured at 2×10^5/well on anti-CD3 coated plates with or without plate-bound hDelta1-IgG4Fc fusion protein (prepared as described above) and soluble anti-CD28. […] Soluble hDelta1-IgG4Fc fusion protein was added into culture at the start at the concentrations shown and IL-10 was measured in supernatants on day 3 by ELISA using antibody pairs from R & D Systems (Abingdon, UK).
On the technique in general: In an ELISA, binding on a coated surface is turned into a signal by an enzyme label.

Assay [1] relates to Notch signalling from Jagged1 (A20-Jagged cells, human Jagged1). In words: Antagonism of A20-Jagged Notch signalling (N27#11 luciferase reporter). Particulars: A20-Jagged cells 1×10^5 per well; IgG4 as control. The source says: (§1) The IVS, IRES, Neo and pA elements were removed from plasmid pIRESneo2 (Clontech, USA) and inserted into a pUC cloning vector downstream of a chicken beta-actin promoter (eg see GenBank Accession No E02199). Mouse Delta-1 cDNA (eg see GenBank Accession No NM_007865) was inserted between the actin promoter and IVS elements and a sequence with multiple stop codons in all three reading frames was inserted between the Delta and IVS elements.
(§2) The resulting construct was transfected into A20 cells using electroporation and G418 to provide A20 cells expressing mouse Delta1 on their surfaces (A20-Delta).
Corresponding cells (A20-Jagged) were prepared using human Jagged1 cDNA (see e.g. GenBank Accession No U61276).
(§3) The procedure of Example was repeated using A20-Delta or A20-Jagged cells (1×10^5 per well) in place of CHO-Delta cells. IgG4 was used as a control.
A general note: A reporter such as luciferase makes a cellular process visible.

For assay [2], the system named is Notch signalling from Delta (A20-Delta cells, mouse Delta1). Description: Antagonism of A20-Delta Notch signalling (N27#11 luciferase reporter). To be noted: A20-Delta cells 1×10^5 per well; IgG4 as control.
Description: as §1, §2, §3

For “hDelta1-IgG4Fc: fusion protein comprising the extracellular domain of human Delta1 fused to the Fc domain of human IgG4 (SEQ ID NO: 5)”, in the assay with Mouse CD4+T-cells, the “effect of soluble protein on increased IL-10 release induced by plate-bound hDelta1-IgG4Fc” value is “substantially reversed”. For the same substance, the “inhibition of Notch signalling from Jagged1” value in assay [1] is “able to inhbit Notch signalling”. Also, in assay [2], the “inhibition of Notch signalling from Delta” value is given as “able to inhbit Notch signalling”.
